Key:
Format in all cases: biochemical
human TK1 = target: T1, human TK1 (Homo sapiens, UniProt P06870); assay: Inhibition of TK1 (Ki); settings: activated human TK1, substrate H-Pro-Phe-Arg-AMC, 24° C.
T1 construct: purchased R&D Systems
Procedure: The ability of compounds of formula (I) to inhibit plasma kallikrein (PKK), Factor XIIa (FXIIa), Factor XIa (FXIa), Factor Xa (FXa), Factor IIa (alpha-thrombin; FIIa), plasmin, trypsin, tissue kallikrein 1 (TK1), Factor VIIa (FVIIa), or FVIIa complexed with Tissue Factor, phospholipids and CaCl2 (FVIIa/TF/PL/CaCl2) is determined using the following biochemical assays in assay buffer (100 mM Tris, 150 mM NaCL, adjusted to a pH of 7.8 with HCl, and containing 0.1% (w/v) BSA and 0.05% (v/v) Tween20) in the presence of 1% (v/v) DMSO:
Prior to the assay, human TK1 (R&D Systems) is activated by incubation with human trypsin (Calbiochem) in a 1:10,000 ratio for 15 min at 37° C. For assaying TK1 inhibitory activity, activated TK1 (31.25 nM or 1 U/mL) is incubated at 24° C. with 0.1 mM fluorogenic substrate H-Pro-Phe-Arg-AMC (11295 from Bachem) and various concentrations of the test compound in assay buffer. Measurements are performed in a kinetic interval every 2nd minute for 16 min using a Spectramax M5 (Molecular Devices) with the following settings of the wavelength excitation of 350 nm and wavelength emission of 450 nm.
The pIC50 values are then fitted using a four-parametric fitting procedure using GraphPad Prism (version 6; GraphPad Software, Inc.). Respective Ki values are obtained by correction of the IC50 values for the respective KM value of the used substrate (see Table A for the obtained KM values of the used substrates) using the following formula:
[formula] Where the IC50 is in molar and the KM value in mM.

[1] = target: T2, PKK in kaolin activated human platelet poor plasma (Homo sapiens, UniProt P03952); assay: Inhibition of PKK in kaolin activated human PPP; settings: 25-750 μg/mL kaolin, global fit, text b200 calls the values IC90;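 further: readout is the rate of fluorogenic substrate cleavage in rfu per min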
T2 construct: Platelet poor plasma (PPP) obtained from human wholeblood; from tissue
Procedure: Platelet poor plasma (PPP) obtained from human wholeblood, anticoagulated with Na-Citrate, is incubated with various concentrations of the test compound together with either 25, 75, 250, or 750 μg/mL kaolin in assay buffer for 20 min at 37° C. such that for each kaolin dose used a concentration response is obtained for the test compound.

Human PKK = target: T3, Human PKK (Homo sapiens, UniProt P03952); assay: Inhibition of PKK using an endpoint assay (human PKK); settings: fluorogenic substrate H-Pro-Phe-Arg-AMC, 1 h room temperature, method names human or rat PKK, table does not say which
T3 construct: purchased Enzyme Research Laboratories
Summary of the method: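 Human PKK inhibition measured in 100 mM Tris, 150 mM NaCl, pH 7.8, 0.1% BSA, 0.05% Tween20, 1% DMSO. Endpoint format: reaction stopped with PPACK II at 1 μM final, fluorescence read at 355 nm excitation/460 nm emission.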

T1 sequence (P06870 25-262): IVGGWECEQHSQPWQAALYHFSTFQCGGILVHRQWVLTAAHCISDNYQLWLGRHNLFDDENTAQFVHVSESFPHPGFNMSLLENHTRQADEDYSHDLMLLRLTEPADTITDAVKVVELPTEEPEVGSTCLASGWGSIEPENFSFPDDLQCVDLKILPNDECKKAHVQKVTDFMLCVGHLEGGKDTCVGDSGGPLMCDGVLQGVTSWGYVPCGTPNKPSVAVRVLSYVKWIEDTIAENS
T3 sequence (P03952 20-390 limits assumed): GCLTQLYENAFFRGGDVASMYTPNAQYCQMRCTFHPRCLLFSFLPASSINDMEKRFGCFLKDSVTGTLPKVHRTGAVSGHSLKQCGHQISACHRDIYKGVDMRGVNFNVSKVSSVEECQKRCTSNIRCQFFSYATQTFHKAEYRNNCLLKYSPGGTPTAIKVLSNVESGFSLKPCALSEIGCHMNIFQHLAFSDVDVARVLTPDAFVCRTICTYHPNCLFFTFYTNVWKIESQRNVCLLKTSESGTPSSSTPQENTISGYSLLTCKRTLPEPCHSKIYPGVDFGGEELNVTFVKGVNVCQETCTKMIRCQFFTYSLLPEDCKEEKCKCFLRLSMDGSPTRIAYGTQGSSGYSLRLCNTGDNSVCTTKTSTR
T3 sequence (P03952 391-638 limits assumed): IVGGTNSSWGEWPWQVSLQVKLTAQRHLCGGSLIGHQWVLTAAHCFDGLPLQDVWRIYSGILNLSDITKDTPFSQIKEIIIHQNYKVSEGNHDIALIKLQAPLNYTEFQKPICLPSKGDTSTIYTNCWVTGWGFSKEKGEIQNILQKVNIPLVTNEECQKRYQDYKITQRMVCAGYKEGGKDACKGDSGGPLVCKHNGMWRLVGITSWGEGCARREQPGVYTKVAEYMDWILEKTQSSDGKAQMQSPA
T2 sequence (P03952 391-638 limits assumed): as above
T2 sequence (P03952 20-390 limits assumed): as the sequence (P03952 20-390 limits assumed) above

Row | SMILES | Ki (human TK1) [nM] | IC50 [1] [nM] | IC50 (Human PKK) [nM]
1 | Cn1cnc2c1CC[C@H]2NC(=O)c1cn(Cc2ccc(N3CC4(CC4)C3)nc2C(F)F)nn1 [Example 4, 1-[(6-{5-Azaspiro[2.3]hexan-5-yl}-2-(difluoromethyl)-pyridin-3-yl)methyl]-N-[(4R)-1-methyl-1H,4H,5H,6H-cyclo-penta[d]imidazol-4-yl]-1H-1,2,3-triazole-4-carboxamide] | > 10000 | 184 | 0.9
2 | Cn1cnc2c1CC[C@H]2NC(=O)c1cn(Cc2ccc(N3CC4(CC4)C3)nc2Br)cn1 [Example 16, 1-[(6-{5-Azaspiro[2.3]hexan-5-yl}-2-bromopyridin-3-yl)methyl]-N-[(4R)-1-methyl-1H,4H,5H,6H-cyclopenta[d]imidazol-4-yl]-1H-imidazole-4-carboxamide] | > 10000 | 280 | 0.6
3 | CCc1nc(N2CC3(CC3)C2)ccc1Cn1cc(C(=O)N[C@@H]2CCc3c2ncn3C)nn1 [Example 20, 1-[(6-{5-Azaspiro[2.3]hexan-5-yl}-2-ethylpyridin-3-yl)methyl]-N-[(4R)-1-methyl-1H,4H,5H,6H-cyclo-penta[d]imidazol-4-yl]-1H-1,2,3-triazole-4-carboxamide] | > 10000 | 99 | 0.7
4 | CCc1nc(N2CC3CC3C2)ccc1Cn1cc(C(=O)N[C@@H]2CCc3c2ncn3C)cn1 (stereo partly drawn) [Example 22, 1-[(6-{3-Azabicyclo[3.1.0]hexan-3-yl}-2-ethylpyridin-3-yl)methyl]-N-[(4R)-1-methyl-1H,4H,5H,6H-cyclopenta[d]imidazol-4-yl]-1H-pyrazole-4-carboxamide] | > 10000 | 249 | 0.5
5 | Cc1nc(N2CC3CC3C2)ccc1Cn1cnc(C(=O)N[C@@H]2CCc3c2ncn3C)c1 (stereo partly drawn) [Example 23, 1-[(6-{3-Azabicyclo[3.1.0]hexan-3-yl}-2-methylpyridin-3-yl)methyl]-N-[(4R)-1-methyl-1H,4H,5H,6H-cyclopenta[d]imidazol-4-yl]-1H-imidazole-4-carboxamide] | > 10000 | 233 | 1.1
6 | Cc1nc(N2CC3C(C2)C3(F)F)ccc1Cn1cnc(C(=O)N[C@@H]2CCc3c2ncn3C)c1 (stereo partly drawn) [Example 24, 1-[(6-{6,6-Difluoro-3-azabicyclo[3.1.0]hexan-3-yl}-2-methylpyridin-3-yl)methyl]-N-[(4R)-1-methyl-1H,4H,5H,6H-cyclopenta[d]imidazol-4-yl]-1H-imidazole-4-carboxamide] | > 10000 | 181 | 1
7 | Cc1nc(N2CC3C(C2)C3(F)F)ccc1Cn1cc(C(=O)N[C@@H]2CCc3c2ncn3C)nn1 (stereo partly drawn) [Example 27, 1-[(6-{6,6-Difluoro-3-azabicyclo[3.1.0]hexan-3-yl}-2-methylpyridin-3-yl)methyl]-N-[(4R)-1-methyl-1H,4H,5H,6H-cyclopenta[d]imidazol-4-yl]-1H-1,2,3-triazole-4-carboxamide] | > 10000 | 202 | 0.9
8 | CCc1nc(N2CC3C(C2)C3(F)F)ccc1Cn1cc(C(=O)N[C@@H]2CCc3c2ncn3C)cn1 (stereo partly drawn) [Example 36, 1-[(6-{6,6-Difluoro-3-azabicyclo[3.1.0]hexan-3-yl}-2-ethylpyridin-3-yl)methyl]-N-[(4R)-1-methyl-1H,4H,5H,6H-cyclopenta[d]imidazol-4-yl]-1H-pyrazole-4-carboxamide] | > 10000 | 180 | 0.5
9 | Cn1cnc2c1CC[C@H]2NC(=O)c1cn(Cc2ccc(N3CC4(CC4)C3)nc2C(F)F)cn1 [Example 47, 1-[(6-{5-Azaspiro[2.3]hexan-5-yl}-2-(difluoromethyl)-pyridin-3-yl)methyl]-N-[(4R)-1-methyl-1H,4H,5H,6H-cyclopenta[d]imidazol-4-yl]-1H-imidazole-4-carboxamide] | > 10000 | 173 | 0.8
10 | COCc1nc(N2CC3CC3C2)ccc1Cn1cc(C(=O)N[C@@H]2CCc3c2ncn3C)cn1 (stereo partly drawn) [Example 49, 1-[(6-{3-Azabicyclo[3.1.0]hexan-3-yl}-2-(methoxymethyl)-pyridin-3-yl)methyl]-N-[(4R)-1-methyl-1H,4H,5H,6H-cyclopenta[d]imidazol-4-yl]-1H-pyrazole-4-carboxamide] | > 10000 | 254 | 2.5
11 | CCc1nc(N2CC3(CC3)C2)ccc1Cn1cc(C(=O)N[C@@H]2CCc3c2ncn3C)cn1 [Example 51, 1-[(6-{5-Azaspiro[2.3]hexan-5-yl}-2-ethylpyridin-3-yl)methyl]-N-[(4R)-1-methyl-1H,4H,5H,6H-cyclopenta[d]imidazol-4-yl]-1H-pyrazole-4-carboxamide] | > 10000 | 213 | 1
12 | Cc1cc(N2CC3CC3C2)ncc1Cn1cc(C(=O)N[C@@H]2CCc3c2ncn3C)cn1 (stereo partly drawn) [Example 113, 1-[(6-{3-Azabicyclo[3.1.0]hexan-3-yl}-4-methylpyridin-3-yl)methyl]-N-[(4R)-1-methyl-1H,4H,5H,6H-cyclopenta[d]imidazol-4-yl]-1H-pyrazole-4-carboxamide] | > 10000 |  | 9.9
13 | Cn1cnc2c1CC[C@H]2NC(=O)c1cn(Cc2ccc(N3CC4C(C3)C4(F)F)cc2F)cn1 (stereo partly drawn) [Example 212, 1-[(4-{6,6-difluoro-3-azabicyclo[3.1.0]hexan-3-yl}-2-fluorophenyl)methyl]-N-[(4R)-1-methyl-1H,4H,5H,6H-cyclopenta[d]imidazol-4-yl]-1H-imidazole-4-carboxamide] |  | 1890 | 2.1
14 | Cn1cnc2c1CC[C@H]2NC(=O)c1cnn(Cc2ccc(N3CC4C(C3)C4(F)F)cc2F)c1 (stereo partly drawn) [Example 213, 1-[(4-{6,6-difluoro-3-azabicyclo[3.1.0]hexan-3-yl}-2-fluorophenyl)methyl]-N-[(4R)-1-methyl-1H,4H,5H,6H-cyclopenta[d]imidazol-4-yl]-1H-pyrazole-4-carboxamide] |  | 621 | 2.3
15 | Cn1cnc2c1CC[C@H]2NC(=O)c1cn(Cc2cnc(N3CC4CC4C3)nc2CO)cn1 (stereo partly drawn) [Example 214, 1-[(2-{3-Azabicyclo[3.1.0]hexan-3-yl}-4-(hydroxymethyl)pyrimidin-5-yl)methyl]-N-[(4R)-1-methyl-1H,4H,5H,6H-cyclopenta[d]imidazol-4-yl]-1H-imidazole-4-carboxamide] |  | 1040 | 20.3
16 | CC(O)c1nc(N2CC3C(C2)C3(F)F)ccc1Cn1cc(C(=O)N[C@@H]2CCc3c2ncn3C)nn1 (stereo partly drawn) [Example 215, 1-[(6-{6,6-Difluoro-3-azabicyclo[3.1.0]hexan-3-yl}-2-(1-hydroxyethyl)pyridin-3-yl)methyl]-N-[(4R)-1-methyl-1H,4H,5H,6H-cyclopenta[d]imidazol-4-yl]-1H-1,2,3-triazole-4-carboxamide] |  | 194 | 0.7
17 | Cc1nc(N2CC3CC3C2)ccc1Cn1cc(C(=O)N[C@@H]2CCc3c2ncn3C)c(CCO)n1 (stereo partly drawn) [Example 216, 1-[(6-{3-Azabicyclo[3.1.0]hexan-3-yl}-2-methylpyridin-3-yl)methyl]-3-(2-hydroxyethyl)-N-[(4R)-1-methyl-1H,4H,5H,6H-cyclopenta[d]imidazol-4-yl]-1H-pyrazole-4-carboxamide] |  | > 10000 | 1.2
18 | COCc1nc(N2CC3CC3C2)ccc1Cc1cc(C(=O)N[C@@H]2CCc3c2ncn3C)[nH]n1 (stereo partly drawn) [Example 219, 3-[(6-{3-Azabicyclo[3.1.0]hexan-3-yl}-2-(methoxymethyl)pyridin-3-yl)methyl]-N-[(4R)-1-methyl-1H,4H,5H,6H-cyclopenta[d]imidazol-4-yl]-1H-pyrazole-5-carboxamide] |  | 776 | 3.6
19 | Cn1cnc2c1CC[C@H]2NC(=O)c1cc(Cc2ccc(N3CC4CC4C3)nc2CO)n[nH]1 (stereo partly drawn) [Example 220, 3-[(6-{3-Azabicyclo[3.1.0]hexan-3-yl}-2-(hydroxymethyl)pyridin-3-yl)methyl]-N-[(4R)-1-methyl-1H,4H,5H,6H-cyclopenta[d]imidazol-4-yl]-1H-pyrazole-5-carboxamide] |  | 525 | 1.9
20 | Cc1nc(N2CC3(CC3)C2)ncc1Cn1cc(C(=O)N[C@@H]2CCc3c2ncn3C)cn1 [Example 222, 1-[(2-{5-Azaspiro[2.3]hexan-5-yl}-4-methylpyrimidin-5-yl)methyl]-N-[(4R)-1-methyl-1H,4H,5H,6H-cyclopenta[d]imidazol-4-yl]-1H-pyrazole-4-carboxamide] | 7280 |  | 11.6

From patent US12479827B2, “Heteroaromatic carboxamide derivatives as plasma kallikrein inhibitors” (Boehringer Ingelheim International GmbH, priority 2020, dated 2025)
